This note sets out measurements from PubChem BioAssay AID1963831 (Molecular Pharmacology Branch, DTP, NCI, 2024).
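Further: spheroids exposed to compounds for seven days; 100% = DMSO vehicle control viability.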

The first assay has as its system 889142-216-R-J1-PDC complex spheroid viability. Kind of assay: Anticancer human tumor 889142-216-R-J1-PDC patient-derived bladder carcinoma cell line growth inhibition [POLQ]. As to conditions: second compound 3.16 µM; first compound 0.1 µM; hits give low values. Summed up: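 Growth inhibition in 3D: complex spheroids (tumor PDC, HUVEC, MSC) treated with POLQ inhibitor combinations; where Cmax unknown, highest tested concentration 10 microM, except SN-38 at 1 microM.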
For the compound `CCc1cc2c(N3CCc4c(cc(Cn5ccnc5)cc4-c4cn(C)nc4C(F)(F)F)C3=O)ccnc2c(OC)n1` + Nc1ccc(C#CCN(C(=O)Cc2ncc(C(F)(F)F)cc2C(F)(F)F)c2ccc(F)cc2)nn1, the viability, T/C – broadly, the ratio of treated to control – is 104%.

Turning to `COc1cc2cc(C(=O)CCC(=O)O)sc2cc1OC` + Nc1ccc(C#CCN(C(=O)Cc2ncc(C(F)(F)F)cc2C(F)(F)F)c2ccc(F)cc2)nn1, the viability, T/C was 83.6%.

Still in this assay, the particulars now being: second compound 3.16 µM; first compound 0.316 µM; hits give low values.
Regarding `C=CC(=O)N1CCN(c2nc(=O)n(-c3c(C)ccnc3C(C)C)c3nc(-c4c(O)cccc4F)c(F)cc23)C(C)C1` (configuration not stated) + Nc1ccc(C#CCN(C(=O)Cc2ncc(C(F)(F)F)cc2C(F)(F)F)c2ccc(F)cc2)nn1, the viability, T/C was 119%.

Regarding `CC(C)n1c(=O)n(C)c2cnc3cc(F)c(-c4ccc(OCCCN5CCCCC5)nc4)cc3c21` + Nc1ccc(C#CCN(C(=O)Cc2ncc(C(F)(F)F)cc2C(F)(F)F)c2ccc(F)cc2)nn1, the viability, T/C is 80.5%.

With `CCc1cc2c(N3CCc4c(cc(Cn5ccnc5)cc4-c4cn(C)nc4C(F)(F)F)C3=O)ccnc2c(OC)n1` + Nc1ccc(C#CCN(C(=O)Cc2ncc(C(F)(F)F)cc2C(F)(F)F)c2ccc(F)cc2)nn1, the viability, T/C is 120%.

Regarding `COc1cc2cc(C(=O)CCC(=O)O)sc2cc1OC` + Nc1ccc(C#CCN(C(=O)Cc2ncc(C(F)(F)F)cc2C(F)(F)F)c2ccc(F)cc2)nn1, the viability, T/C is 91.1%.

Staying with this assay, now noted: second compound 3.16 µM; first compound 1 µM; hits give low values.
For `C=CC(=O)N1CCN(c2nc(=O)n(-c3c(C)ccnc3C(C)C)c3nc(-c4c(O)cccc4F)c(F)cc23)C(C)C1` (configuration not stated) + Nc1ccc(C#CCN(C(=O)Cc2ncc(C(F)(F)F)cc2C(F)(F)F)c2ccc(F)cc2)nn1, the viability, T/C is 88.8%.

For the compound `CC(C)n1c(=O)n(C)c2cnc3cc(F)c(-c4ccc(OCCCN5CCCCC5)nc4)cc3c21` + Nc1ccc(C#CCN(C(=O)Cc2ncc(C(F)(F)F)cc2C(F)(F)F)c2ccc(F)cc2)nn1, the viability, T/C was 88%.

As for `CCc1cc2c(N3CCc4c(cc(Cn5ccnc5)cc4-c4cn(C)nc4C(F)(F)F)C3=O)ccnc2c(OC)n1` + Nc1ccc(C#CCN(C(=O)Cc2ncc(C(F)(F)F)cc2C(F)(F)F)c2ccc(F)cc2)nn1, the viability, T/C is 124%.

For the compound `COc1cc2cc(C(=O)CCC(=O)O)sc2cc1OC` + Nc1ccc(C#CCN(C(=O)Cc2ncc(C(F)(F)F)cc2C(F)(F)F)c2ccc(F)cc2)nn1, the viability, T/C is 71.7%.

Still in this assay, the particulars now being: second compound 3.16 µM; first compound 3.16 µM; hits give low values.
Take `C=CC(=O)N1CCN(c2nc(=O)n(-c3c(C)ccnc3C(C)C)c3nc(-c4c(O)cccc4F)c(F)cc23)C(C)C1` (configuration not stated) + Nc1ccc(C#CCN(C(=O)Cc2ncc(C(F)(F)F)cc2C(F)(F)F)c2ccc(F)cc2)nn1: the viability, T/C was 119%.

With `CC(C)n1c(=O)n(C)c2cnc3cc(F)c(-c4ccc(OCCCN5CCCCC5)nc4)cc3c21` + Nc1ccc(C#CCN(C(=O)Cc2ncc(C(F)(F)F)cc2C(F)(F)F)c2ccc(F)cc2)nn1, the viability, T/C is 70.1%.

With `CCc1cc2c(N3CCc4c(cc(Cn5ccnc5)cc4-c4cn(C)nc4C(F)(F)F)C3=O)ccnc2c(OC)n1` + Nc1ccc(C#CCN(C(=O)Cc2ncc(C(F)(F)F)cc2C(F)(F)F)c2ccc(F)cc2)nn1, the viability, T/C is 111%.

Turning to `COc1cc2cc(C(=O)CCC(=O)O)sc2cc1OC` + Nc1ccc(C#CCN(C(=O)Cc2ncc(C(F)(F)F)cc2C(F)(F)F)c2ccc(F)cc2)nn1, the viability, T/C was 87.2%.

The assay is the same for the next values; noted with them: second compound 3.16 µM; first compound 10 µM; hits give low values.
Regarding `C=CC(=O)N1CCN(c2nc(=O)n(-c3c(C)ccnc3C(C)C)c3nc(-c4c(O)cccc4F)c(F)cc23)C(C)C1` (configuration not stated) + Nc1ccc(C#CCN(C(=O)Cc2ncc(C(F)(F)F)cc2C(F)(F)F)c2ccc(F)cc2)nn1, the viability, T/C is 104%.

`CC(C)n1c(=O)n(C)c2cnc3cc(F)c(-c4ccc(OCCCN5CCCCC5)nc4)cc3c21` + Nc1ccc(C#CCN(C(=O)Cc2ncc(C(F)(F)F)cc2C(F)(F)F)c2ccc(F)cc2)nn1: the viability, T/C was 113%.

For `CCc1cc2c(N3CCc4c(cc(Cn5ccnc5)cc4-c4cn(C)nc4C(F)(F)F)C3=O)ccnc2c(OC)n1` + Nc1ccc(C#CCN(C(=O)Cc2ncc(C(F)(F)F)cc2C(F)(F)F)c2ccc(F)cc2)nn1, the viability, T/C is 105%.

Take `COc1cc2cc(C(=O)CCC(=O)O)sc2cc1OC` + Nc1ccc(C#CCN(C(=O)Cc2ncc(C(F)(F)F)cc2C(F)(F)F)c2ccc(F)cc2)nn1: the viability, T/C is 76.8%.

Still in this assay, the particulars now being: second compound 10 µM; first compound 0.0316 µM; hits give low values.
With `C=CC(=O)N1CCN(c2nc(=O)n(-c3c(C)ccnc3C(C)C)c3nc(-c4c(O)cccc4F)c(F)cc23)C(C)C1` (configuration not stated) + Nc1ccc(C#CCN(C(=O)Cc2ncc(C(F)(F)F)cc2C(F)(F)F)c2ccc(F)cc2)nn1, the viability, T/C was 99.5%.

In the case of `CC(C)n1c(=O)n(C)c2cnc3cc(F)c(-c4ccc(OCCCN5CCCCC5)nc4)cc3c21` + Nc1ccc(C#CCN(C(=O)Cc2ncc(C(F)(F)F)cc2C(F)(F)F)c2ccc(F)cc2)nn1, the viability, T/C is 79.3%.

As to `CCc1cc2c(N3CCc4c(cc(Cn5ccnc5)cc4-c4cn(C)nc4C(F)(F)F)C3=O)ccnc2c(OC)n1` + Nc1ccc(C#CCN(C(=O)Cc2ncc(C(F)(F)F)cc2C(F)(F)F)c2ccc(F)cc2)nn1, the viability, T/C was 118%.

For `COc1cc2cc(C(=O)CCC(=O)O)sc2cc1OC` + Nc1ccc(C#CCN(C(=O)Cc2ncc(C(F)(F)F)cc2C(F)(F)F)c2ccc(F)cc2)nn1, the viability, T/C is 90.5%.

The assay is the same for the next values; noted with them: second compound 10 µM; first compound 0.1 µM; hits give low values.
Take `C=CC(=O)N1CCN(c2nc(=O)n(-c3c(C)ccnc3C(C)C)c3nc(-c4c(O)cccc4F)c(F)cc23)C(C)C1` (configuration not stated) + Nc1ccc(C#CCN(C(=O)Cc2ncc(C(F)(F)F)cc2C(F)(F)F)c2ccc(F)cc2)nn1: the viability, T/C is 114%.

As to `CC(C)n1c(=O)n(C)c2cnc3cc(F)c(-c4ccc(OCCCN5CCCCC5)nc4)cc3c21` + Nc1ccc(C#CCN(C(=O)Cc2ncc(C(F)(F)F)cc2C(F)(F)F)c2ccc(F)cc2)nn1, the viability, T/C was 97.8%.

In the case of `CCc1cc2c(N3CCc4c(cc(Cn5ccnc5)cc4-c4cn(C)nc4C(F)(F)F)C3=O)ccnc2c(OC)n1` + Nc1ccc(C#CCN(C(=O)Cc2ncc(C(F)(F)F)cc2C(F)(F)F)c2ccc(F)cc2)nn1, the viability, T/C is 101%.

For the compound `COc1cc2cc(C(=O)CCC(=O)O)sc2cc1OC` + Nc1ccc(C#CCN(C(=O)Cc2ncc(C(F)(F)F)cc2C(F)(F)F)c2ccc(F)cc2)nn1, the viability, T/C was 79%.

The assay is the same for the next values; noted with them: second compound 10 µM; first compound 0.316 µM; hits give low values.
Turning to `C=CC(=O)N1CCN(c2nc(=O)n(-c3c(C)ccnc3C(C)C)c3nc(-c4c(O)cccc4F)c(F)cc23)C(C)C1` (configuration not stated) + Nc1ccc(C#CCN(C(=O)Cc2ncc(C(F)(F)F)cc2C(F)(F)F)c2ccc(F)cc2)nn1, the viability, T/C was 121%.

For the compound `CC(C)n1c(=O)n(C)c2cnc3cc(F)c(-c4ccc(OCCCN5CCCCC5)nc4)cc3c21` + Nc1ccc(C#CCN(C(=O)Cc2ncc(C(F)(F)F)cc2C(F)(F)F)c2ccc(F)cc2)nn1, the viability, T/C is 88.6%.

As to `CCc1cc2c(N3CCc4c(cc(Cn5ccnc5)cc4-c4cn(C)nc4C(F)(F)F)C3=O)ccnc2c(OC)n1` + Nc1ccc(C#CCN(C(=O)Cc2ncc(C(F)(F)F)cc2C(F)(F)F)c2ccc(F)cc2)nn1, the viability, T/C is 129%.

For `COc1cc2cc(C(=O)CCC(=O)O)sc2cc1OC` + Nc1ccc(C#CCN(C(=O)Cc2ncc(C(F)(F)F)cc2C(F)(F)F)c2ccc(F)cc2)nn1, the viability, T/C was 93.7%.

The same assay, now with this note: second compound 10 µM; first compound 1 µM; hits give low values.
`C=CC(=O)N1CCN(c2nc(=O)n(-c3c(C)ccnc3C(C)C)c3nc(-c4c(O)cccc4F)c(F)cc23)C(C)C1` (configuration not stated) + Nc1ccc(C#CCN(C(=O)Cc2ncc(C(F)(F)F)cc2C(F)(F)F)c2ccc(F)cc2)nn1: the viability, T/C is 95.1%.

As to `CC(C)n1c(=O)n(C)c2cnc3cc(F)c(-c4ccc(OCCCN5CCCCC5)nc4)cc3c21` + Nc1ccc(C#CCN(C(=O)Cc2ncc(C(F)(F)F)cc2C(F)(F)F)c2ccc(F)cc2)nn1, the viability, T/C was 79.7%.

Take `CCc1cc2c(N3CCc4c(cc(Cn5ccnc5)cc4-c4cn(C)nc4C(F)(F)F)C3=O)ccnc2c(OC)n1` + Nc1ccc(C#CCN(C(=O)Cc2ncc(C(F)(F)F)cc2C(F)(F)F)c2ccc(F)cc2)nn1: the viability, T/C is 135%.

With `COc1cc2cc(C(=O)CCC(=O)O)sc2cc1OC` + Nc1ccc(C#CCN(C(=O)Cc2ncc(C(F)(F)F)cc2C(F)(F)F)c2ccc(F)cc2)nn1, the viability, T/C was 101%.

Staying with this assay, now noted: second compound 10 µM; first compound 3.16 µM; hits give low values.
With `C=CC(=O)N1CCN(c2nc(=O)n(-c3c(C)ccnc3C(C)C)c3nc(-c4c(O)cccc4F)c(F)cc23)C(C)C1` (configuration not stated) + Nc1ccc(C#CCN(C(=O)Cc2ncc(C(F)(F)F)cc2C(F)(F)F)c2ccc(F)cc2)nn1, the viability, T/C is 126%.

As to `CC(C)n1c(=O)n(C)c2cnc3cc(F)c(-c4ccc(OCCCN5CCCCC5)nc4)cc3c21` + Nc1ccc(C#CCN(C(=O)Cc2ncc(C(F)(F)F)cc2C(F)(F)F)c2ccc(F)cc2)nn1, the viability, T/C was 59.7%.

Consider `CCc1cc2c(N3CCc4c(cc(Cn5ccnc5)cc4-c4cn(C)nc4C(F)(F)F)C3=O)ccnc2c(OC)n1` + Nc1ccc(C#CCN(C(=O)Cc2ncc(C(F)(F)F)cc2C(F)(F)F)c2ccc(F)cc2)nn1, for which the viability, T/C was 120%.

`COc1cc2cc(C(=O)CCC(=O)O)sc2cc1OC` + Nc1ccc(C#CCN(C(=O)Cc2ncc(C(F)(F)F)cc2C(F)(F)F)c2ccc(F)cc2)nn1: the viability, T/C is 100%.

Still in this assay, the particulars now being: second compound 10 µM; first compound 10 µM; hits give low values.
For the compound `C=CC(=O)N1CCN(c2nc(=O)n(-c3c(C)ccnc3C(C)C)c3nc(-c4c(O)cccc4F)c(F)cc23)C(C)C1` (configuration not stated) + Nc1ccc(C#CCN(C(=O)Cc2ncc(C(F)(F)F)cc2C(F)(F)F)c2ccc(F)cc2)nn1, the viability, T/C is 131%.

For the compound `CC(C)n1c(=O)n(C)c2cnc3cc(F)c(-c4ccc(OCCCN5CCCCC5)nc4)cc3c21` + Nc1ccc(C#CCN(C(=O)Cc2ncc(C(F)(F)F)cc2C(F)(F)F)c2ccc(F)cc2)nn1, the viability, T/C is 97.2%.

For the compound `CCc1cc2c(N3CCc4c(cc(Cn5ccnc5)cc4-c4cn(C)nc4C(F)(F)F)C3=O)ccnc2c(OC)n1` + Nc1ccc(C#CCN(C(=O)Cc2ncc(C(F)(F)F)cc2C(F)(F)F)c2ccc(F)cc2)nn1, the viability, T/C was 92.8%.

As for `COc1cc2cc(C(=O)CCC(=O)O)sc2cc1OC` + Nc1ccc(C#CCN(C(=O)Cc2ncc(C(F)(F)F)cc2C(F)(F)F)c2ccc(F)cc2)nn1, the viability, T/C was 89.4%.
